Experimental data published in patent US6204262A, “1,3-Benzodiazepin-2-ones and 1,3-Benzoxazepin-2-ones useful as HIV reverse transcriptase inhibitors” (DuPont Pharmaceuticals Company, priority 1999, dated 2001).
Values after ≈ are worked out from the molar mass of the structure shown.

Tested on: HIV-1 (RF)
Assay: Microplate based compound evaluation in HIV-1 infected MT-2 cells (HIV RNA assay)
Type: cell-based
Details: Human immunodeficiency virus 1, MT2, 72 h; HIV-1 (RF) infected MT-2 cells, 3 days at 37° C.; virus inoculum standardized on ddC; read-out: IC90 value (concentration of compound required to reduce the HIV RNA level by 90%)
Experimental: Plasmid pDAB 72 containing both gag and pol sequences of BH10 (bp 113-1816) cloned into PTZ 19R was prepared according to Erickson-Viitanen et al. AIDS Research and Human Retroviruses 1989, 5, 577. The plasmid was linearized with Bam HI prior to the generation of in vitro RNA transcripts using the Riboprobe Gemini system II kit (Promega) with T7 RNA polymerase. Synthesized RNA was purified by treatment with RNase free DNAse (Promega), phenol-chloroform extraction, and ethanol precipitation. RNA transcripts were dissolved in water, and stored at -70° C. The concentration of RNA was determined from the A260.
Biotinylated capture probes were purified by HPLC after synthesis on an Applied Biosystems (Foster City, Calif.) DNA synthesizer by addition of biotin to the 5' terminal end of the oligonucleotide, using the biotin-phosphoramidite reagent of Cocuzza, Tet. Lett. 1989, 30, 6287. […]
MT-2 and MT-4 cells were maintained in RPMI 1640 supplemented with 5% fetal calf serum (FCS) for MT-2 cells or 10% FCS for MT-4 cells, 2 mM L-glutamine and 50 μg/mL gentamycin, all from Gibco. […] Infectious titers of HIV-1(RF) stocks were 1-3×10^7 PFU (plaque forming units)/mL as measured by plaque assay on MT-2 cells (see below). […]

IC90: 0.2 µg/mL (≈ 0.947 µM)
SMILES: Nc1ccn([C@H]2CC[C@@H](CO)O2)c(=O)n1 [ddC, 2',3'-dideoxycytidine]
